Measured values published in US20030114360A1 (priority 2000, published 2003).

What was measured:
PrP-AP = format: binding
[1] = target: PrP cell surface receptor on H4 cells (ATCC HTB-148)
[2] = target: PrP cell surface receptor on COS-7 cells (ATCC CRL-1651)

Compound: KKRPKPGGWNT [N-term 11 mer]
- inhibition of PrP-AP binding to cell surfaces by peptide (PrP-AP): inhibited

Compound: OC[C@@H](O)[C@@H](O)[C@H](O)[C@H](O)CO [mannitol]
- inhibition of PrP-AP binding to cell surfaces (PrP-AP): does not participate in the inhibition of binding

Compound: Copaxone
- IC50 [1]: 500 nM
- IC50 [2]: 500 nM

Compound: GGSRYPGQGSP [control 11 mer]
- inhibition of PrP-AP binding to cell surfaces by peptide (PrP-AP): Only the peptide with the PrP amino terminal sequence inhibited
